# According to patent EP0217372A2, “Polyoxygenated labdane derivatives, process for their preparation and their use as medicaments” (HOECHST AKTIENGESELLSCHAFT, priority 1985, dated 1987):
# Where a name gives a salt, the structure may show the parent alone. Read-outs that look alike come from different tables or passages of the source.
# Assays:
# [1] = test system: Narkotisierter Hund; experiment: In vivo test in the anaesthetised dog (left ventricular dp/dt max); parameters: species or system Beagle-Hunde; conditions: injected into the femoral vein, pentobarbital anaesthesia; for ED50: Canis lupus familiaris, iv
# Description: 3. In vivo-Tests am narkotisierten Hund
# Beagle-Hunde beiderlei Geschlechts mit einem Gewicht zwischen 10 und 15 kg werden mit Na-Pentobarbitol (35 mg/kg, i.v.) narkotisiert. Nach Einführen eines Endotrachealtubus werden die Femoralarterie und -vene mit einer Kanüle zur Messung des Blutdrucks bzw. zur Verabreichung von Medikamenten versehen. Der Druck des linken Ventrikels wird mit Hilfe eines Millar-Katheters gemessen und dp/dt max wird berechnet mit einem Hugo-Sachs-Differentiometer. Die Herzfrequenz wird mit Hilfe eines Kardiotachometers aus ECG-Signalen bestimmt. Alle kontinuierlich gemessenen Parameter werden mit einem Hellige-Sechs-Kanal-Recorder aufgezeichnet.
# Die zu untersuchenden erfindungsgemäßen Verbindungen werden in destilliertem Wasser gelöst. In allen Experimenten werden 1%ige Lösungen verwendet. Die Lösungen werden in die Femoralvene injiziert und die Dosis-Wirkung-Relation berechnet.
# [2] = test system: Isoliertes Meerschweinchenherz; experiment: Isolated guinea pig heart (Langendorff method); parameters: species or system Meerschweinchen; conditions: Cavia porcellus; for activation at 0.03 mg: Dosis 30 µg injected into the aorta; for activation at 0.01 mg: Dosis 10 µg injected into the aorta
# Excerpt: 1. Isoliertes Meerschweinchenherz (Langendorff-Methode)
# Es wird ein Meerschweinchen männlichen oder weiblichen Geschlechts mit einem Gewicht zwischen 300 und 400 g getötet und das Herz mit einem kleinen Teil der Aorta entnommen. Das Herz wird umgehend in einen Perfusionsapparat gebracht, in dem die Aorta auf der Glaskanüle fixiert wird. Die aus oxygenierter Ringerlösung bestehende Perfusionslösung wird bei konstantem Druck aus dem Behälter zugeführt, der durch aus dem Thermostat zirkulierendes Wasser auf 37°C angewärmt wird. Die zu untersuchenden Verbindungen der Erfindung werden zur Herstellung einer Lösung mit bekannter Konzentration unter Verwendung stöchiometrischer 0,1 n HC1 bzw. deren Salze direkt in Wasser gelöst. Die erhaltene Lösung wird durch eine Polyäthylenkanüle direkt in die Aorta injiziert und die Wirkungen auf die Kontraktionskraft, Herzfrequenz und Koronardurchblutung auf einem 3-Kanal-Physioscribe-Rekorder aufgezeichnet. Die prozentuale Zu- oder Abnahme der inotropen Wirkung wird nach dem intialen Ausgangswert berechnet.
# [3] = test system: Meerschweinchen-Vorhof; experiment: Electrically stimulated left atrium, contractile force; conditions: contractile force of electrically stimulated left atrium, recorded 7 to 10 min
# Excerpt: 2. Elektrisch stimulierter linker Vorhof
# Es wird ein Meerschweinchen männlichen oder weiblichen Geschlechts mit einem Gewicht von 400 g getötet, das Herz entnommen und bei Zimmertemperatur in Ringerlösung eingebracht. Dann wird der linke Vorhof isoliert, an einem Organhalter befestigt und das Präparat in ein Organbad mit Ringerlösung von Zimmertemperatur gebracht. In das Organbad wird ein lebhafter Strom eines Gemisches von Kohlendioxid und Sauerstoff (95 % 02 und 5 % C02) geleitet. Dann wird der linke Vorhof elektrisch stimuliert. Anschließend wird aus einer der erfindungsgemäßen Verbindungen oder ih- rem Salz gegebenenfalls unter Verwendung von stöchiometrischer wäßriger 0,1 n HC1-Lösung eine wäßrige Lösung bekannter Konzentrationen hergestellt.
# Diese Lösung wird dem Bad zugesetzt und die Kontraktionskraft des Vorhofes 7 bis 10 Minuten lang auf einem 4-Kanal-Kohden-Rekorder registriert. Die Wirkung wird aus den ermittelten Daten als EC50 berechnet angegeben.
# [4] = test system: Augeninnendruck (IOP); experiment: Intraocular pressure in the conscious rabbit; format: in vivo, Kaninchen; conditions: for Senkung des IOP: percent decrease from baseline; for Dauer: duration of the IOP-lowering effect
# Excerpt: Messung des Augeninnendruckes am wachen Kaninchen
# Für die Untersuchung wird ein männliches oder weibliches Kaninchen mit einem Gewicht von 2 bis 3 k^g ausgewählt. Der Augeninnendruck (IOP) wird nach vorheriger Hornhautanästhesie mit 2 % Novocain-Lösung mit einem Schioetz-Tonometer gemessen. Zur Herstellung einer 2 %igen wäßrigen Lösung wird eine Verbindung der Formel I unter Verwendung von stöchiometrischer wäßriger 0,1 n HCI-Lösung oder ein Salz einer solchen Verbindung direkt in Wasser gelöst. […] Der IOP wird in Abständen von 0,5, 1, 2, 3, 4 und 5 Stunden gemessen. Die prozentuale Abnahme des IOP wird anhand des Ausgangswertes berechnet.
# [5] = read-out: % Zunahme der Chronotropen Wirkung
# [6] = read-out: % Zunahme der Koronardurchblutung
# [7] = relative to initial baseline, read-out: % Zunahme der Inotropen Wirkung
# [8] = Dosis 2 %, 100 µl instilled into one eye
structure (smiles),measurement,setting,value
"C=C[C@@]1(C)CC(=O)[C@]2(O)[C@@]3(C)[C@@H](O)CCC(C)(C)[C@@H]3[C@H](O)[C@H](OC(=O)C(C)N3CCOCC3)[C@@]2(C)O1 (some centres unmarked) [the 2nd table, row 3]",Narkotisierter Hund dp/dt max ED50,[1],"0,04 mg/kg"
same,activation at 0.03 mg,[2]; [5],32%
same,activation at 0.03 mg,[2]; [6],44%
same,activation at 0.03 mg,[2]; [7],20%
same,Meerschweinchen-Vorhof EC50,[3],"0,266 µg/ml"
C=C[C@@]1(C)CC(=O)[C@]2(O)[C@@]3(C)[C@@H](O)CCC(C)(C)[C@@H]3[C@H](OC(=O)CN3CCC(C)CC3)[C@H](O)[C@@]2(C)O1,ED50,[1],0.39 mg/kg
same,EC50,[3],2.6 µg/mL
C=C[C@@]1(C)CC(=O)[C@]2(O)[C@@]3(C)[C@@H](O)CCC(C)(C)[C@@H]3[C@H](OC(=O)CN3CCCC3)[C@H](O)[C@@]2(C)O1,EC50,[3],3 µg/mL
C=CC1(C)CC(=O)C2(O)C(C)(O1)C(O)C(OC(=O)CN1CCCC(C)C1)C1C(C)(C)CCC(O)C12C (centres unmarked),EC50,[3],30 µg/mL
C=C[C@@]1(C)CC(=O)[C@]2(O)[C@@]3(C)[C@@H](O)CCC(C)(C)[C@@H]3[C@H](O)[C@H](OC(=O)CN3CCOCC3)[C@@]2(C)O1,activation at 0.01 mg,[2]; [5],35%
same,activation at 0.01 mg,[2]; [6],100%
same,activation at 0.01 mg,[2]; [7],37%
same,EC50,[3],0.35 µg/mL
C=C[C@@]1(C)CC(=O)[C@]2(O)[C@@]3(C)[C@@H](O)CCC(C)(C)[C@@H]3[C@H](O)[C@H](OC(=O)CCCN3CCOCC3)[C@@]2(C)O1,EC50,[3],3 µg/mL
C=C[C@@]1(C)CC(=O)[C@]2(O)[C@@]3(C)[C@@H](O)CCC(C)(C)[C@@H]3[C@H](OC(=O)C(C)N3CCOCC3)[C@H](O)[C@@]2(C)O1 (some centres unmarked),activation at 0.01 mg,[2]; [5],20%
same,activation at 0.01 mg,[2]; [6],11%
same,activation at 0.01 mg,[2]; [7],45%
same,EC50,[3],4.7 µg/mL
C=C[C@@]1(C)CC(=O)[C@]2(O)[C@@]3(C)[C@@H](O)CCC(C)(C)[C@@H]3[C@H](OC(=O)CN3CCC(NC(=O)c4ccccc4)CC3)[C@H](O)[C@@]2(C)O1,EC50,[3],1.2 µg/mL
C=C[C@@]1(C)CC(=O)[C@]2(O)[C@@]3(C)[C@@H](O)CCC(C)(C)[C@@H]3[C@H](O)[C@H](OC(=O)CN3CCCCC3)[C@@]2(C)O1,activation at 0.01 mg,[2]; [5],1%
same,activation at 0.01 mg,[2]; [6],31%
same,activation at 0.01 mg,[2]; [7],18%
same,EC50,[3],22 µg/mL
C=C[C@@]1(C)CC(=O)[C@]2(O)[C@@]3(C)[C@@H](O)CCC(C)(C)[C@@H]3[C@H](OC(=O)CN3CCOCC3)[C@H](O)[C@@]2(C)O1,ED50,[1],0.11 mg/kg
same,activation at 0.03 mg,[2]; [5],34%
same,activation at 0.03 mg,[2]; [6],35%
same,activation at 0.03 mg,[2]; [7],23%
same,EC50,[3],0.5 µg/mL
"C=CC1(C)CC(=O)C2(O)C(C)(O1)C(O)C(OC(=O)CCCCN1CCCCC1)C1C(C)(C)CCC(O)C12C (centres unmarked) [the 4th table, row 5]",EC50,[3],30 µg/mL
C=CC1(C)CC(=O)C2(O)C(C)(O1)C(O)C(O)C1C(C)(C)CCC(OC(=O)CN3CCCCC3)C12C (centres unmarked),Senkung des IOP,[4]; [8],18%
same,Dauer,[4]; Dosis 2 %,2 Std.
C=CC1(C)CC(=O)C2(O)C(C)(O1)C(O)C(OC(=O)CN(C)C1CCCCC1)C1C(C)(C)CCC(O)C12C (centres unmarked),Senkung des IOP,[4]; [8],27.5%
same,Dauer,[4]; Dosis 2 %,6 Std.
C=C[C@@]1(C)CC(=O)[C@]2(O)[C@@]3(C)[C@@H](O)CCC(C)(C)[C@@H]3[C@H](OC(=O)CN3CCSCC3)[C@H](O)[C@@]2(C)O1,ED50,[1],> 3 mg/kg
same,EC50,[3],1.5 µg/mL
C=C[C@@]1(C)CC(=O)[C@]2(O)[C@@]3(C)[C@@H](O)CCC(C)(C)[C@@H]3[C@H](O)[C@H](OC(=O)CCN3C(=O)c4ccccc4C3=O)[C@@]2(C)O1,EC50,[3],> 3 µg/mL
C=CC1(C)CC(=O)C2(O)C(C)(O1)C(OC(=O)Cn1nnc3ccccc31)C(O)C1C(C)(C)CCC(O)C12C (centres unmarked),EC50,[3],> 30 µg/mL
C=CC1(C)CC(=O)C2(O)C(C)(O1)C(OC(=O)C(C)n1cnc3c1c(=O)n(C)c(=O)n3C)C(O)C1C(C)(C)CCC(O)C12C (centres unmarked),EC50,[3],0.9 µg/mL
"C=C[C@@]1(C)CC(=O)[C@]2(O)[C@@]3(C)[C@@H](O)CCC(C)(C)[C@@H]3[C@H](O)[C@H](OC(=O)C(C)N3CCOCC3)[C@@]2(C)O1 (some centres unmarked) [the 1st table, row 7]",ED50,[1],0.04 mg/kg
same,activation at 0.01 mg,[2]; [5],20%
same,activation at 0.01 mg,[2]; [6],-5%
same,activation at 0.01 mg,[2]; [7],18%
same,Meerschweinchen-Vorhof EC50,[3],10 µg/mL
C=C[C@@]1(C)CC(=O)[C@]2(O)[C@@]3(C)[C@@H](O)CCC(C)(C)[C@@H]3[C@H](OC(=O)CN3CCCCC3)[C@H](O)[C@@]2(C)O1,activation at 0.01 mg,[2]; [5],27%
same,activation at 0.01 mg,[2]; [6],40%
same,activation at 0.01 mg,[2]; [7],32%
same,EC50,[3],2.3 µg/mL
C=CC1(C)CC(=O)C2(O)C(C)(O1)C(OC(=O)Cn1cnc3c1c(=O)n(C)c(=O)n3C)C(O)C1C(C)(C)CCC(O)C12C (centres unmarked),Senkung des IOP,[4]; [8],21%
same,Dauer,[4]; Dosis 2 %,> 6 Std.
C=C[C@@]1(C)CC(=O)[C@]2(O)[C@@]3(C)[C@@H](O)CCC(C)(C)[C@@H]3[C@H](O)[C@H](OC(=O)CN3CCCC(C)C3)[C@@]2(C)O1 (some centres unmarked),EC50,[3],30 µg/mL
C=C[C@@]1(C)CC(=O)[C@]2(O)[C@@]3(C)[C@@H](O)CCC(C)(C)[C@@H]3[C@H](O)[C@H](OC(=O)CN3CCSCC3)[C@@]2(C)O1,EC50,[3],30 µg/mL
"C=CC1(C)CC(=O)C2(O)C(C)(O1)C(O)C(OC(=O)CCCCN1CCCCC1)C1C(C)(C)CCC(O)C12C (centres unmarked) [the 5th table, row 7]",Senkung des IOP,[4]; Dosis 1 %,23%
same,Dauer,[4]; Dosis 1 %,6 Std.
"C=CC1(C)CC(=O)C2(O)C(C)(O1)C(OC(=O)C(C)N1CCSCC1)C(O)C1C(C)(C)CCC(OC(=O)C(C)N3CCSCC3)C12C (stereo not drawn) [6β-9α-Dihydroxy, 1α,7β-di(α'-thiomorpholinopropionyloxy)-8,13-epoxy-labd-14-en-one-dihydrochlorid-trihydrat]",Senkung des IOP,[4]; Dosis 1 %,19%
same,Dauer,[4]; Dosis 1 %,6 Std.
C=C[C@@]1(C)CC(=O)[C@]2(O)[C@@]3(C)[C@@H](O)CCC(C)(C)[C@@H]3[C@H](O)[C@H](OC(=O)CN3CCCC3)[C@@]2(C)O1,ED50,[1],0.5 mg/kg
same,activation at 0.01 mg,[2]; [5],24%
same,activation at 0.01 mg,[2]; [6],57%
same,activation at 0.01 mg,[2]; [7],38%
same,EC50,[3],1.8 µg/mL
C=CC1(C)CC(=O)C2(O)C(C)(O1)C(O)C(OC(=O)CN1CCCCCC1)C1C(C)(C)CCC(O)C12C (centres unmarked),EC50,[3],1.9 µg/mL
C=CC1(C)CC(=O)C2(O)C(C)(O1)C(OC(=O)CCCCN1CCCCC1)C(O)C1C(C)(C)CCC(O)C12C (centres unmarked),EC50,[3],30 µg/mL
